Common to all, as to test: NCI anticancer screen, dose series, 48 h
Test [1] deals with U251 CNS.
Test [2] concerns PC-3 prostate.
The subject of test [3] is SK-MEL-28 melanoma.
For test [4], the system named is SF-539 CNS.
Test [5] relates to A498 renal.
Test [6] has as its system TK-10 renal.
Test [7] has as its system CAKI-1 renal.
For test [8], the system named is SK-MEL-5 melanoma.
For test [9], the system named is OVCAR-5 ovarian.
Test [10] has as its system SK-OV-3 ovarian.

13 compounds from PubChem BioAssay (NCI) can be followed below.

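Compound exposure: 48 hours, 5 concentrations, 96-well plates. At the GI50, growth is halved. The concentration for full growth arrest is given as TGI.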 Some results are limits rather than exact numbers.

Regarding `Cc1cc2ccccc2c[n+]1CC(O)C[n+]1cc2ccccc2cc1C`, the TGI in test [1], in test [2], in [3], in [4], in [5] and in [6] was more than 100 µM in each case. In addition, the TGI in test [7], in test [8] and in test [9] was more than 100 µM throughout.

Consider `COc1ccc(C(O)c2ccc3c(c2)OCO3)cc1` (centres undefined), for which the TGI in test [1], in [2], in test [10], in [3], in [4] and in test [5] was more than 100 µM each time. The TGI in test [6], in test [7] and in [9] was more than 100 µM throughout.

Regarding `C/C(O)=C(\C=N\C(N)=S)C(=O)Nc1ccccc1C`, the TGI in test [1], in test [2], in test [10], in test [3], in [4] and in test [5] was more than 100 µM throughout. Further, the TGI in test [6], in [7], in test [8] and in test [9] was more than 100 µM each time.

With `CC(=O)/C=C/C=C(\C)CC/C=C(\C)CC(C)C`, the TGI in test [1] is 87.7 µM; in [2] it was more than 100 µM; in [10], more than 100 µM; in test [3], more than 100 µM; in [4], 46.8 µM; in [5], 83.3 µM. Moreover, the TGI was more than 100 µM in [6], more than 100 µM in test [7], 35.5 µM in [8] and more than 100 µM in test [9].

In the case of `O=C(O)C(CCc1ccccn1)c1ccccc1` (centres undefined), the TGI in [1], in [2], in test [10], in test [3], in test [4] and in test [5] was more than 100 µM throughout. In addition, the TGI in [6], in test [7], in test [8] and in test [9] was more than 100 µM throughout.

With `Nc1ccc2c(c1)C(=O)c1ccccc1-2`, the TGI in [1], in test [2], in test [3], in test [4], in test [5] and in [6] was more than 100 µM each time. The TGI in [7], in test [8] and in test [9] was more than 100 µM each time.

For the compound `Cc1cccc(C(C)(C)C)c1NC(=O)/C(Cc1nc2ccc([N+](=O)[O-])cc2[nH]c1=O)=N/NC(=O)C[N+](C)(C)C`, the TGI in test [1], in test [2], in test [10], in [3], in [4] and in test [5] was more than 100 µM throughout. In addition, the TGI in test [7], in test [8] and in test [9] was more than 100 µM each time.

Turning to `CC[C@]12C=CCN3CCC4(c5cc(N=Nc6ccccc6)c(OC)cc5N(C)[C@H]4[C@@](O)(C(=O)OC)[C@@H]1OC(C)=O)[C@@H]32` (some centres undefined), the TGI was 29.4 µM in [1]; 29.8 µM in test [2]; 36.8 µM in [3]; 48.3 µM in test [4]; 32.2 µM in test [5]; 34.1 µM in [6]. The TGI in [7] stood at 69.8 µM; in test [8], 44.2 µM; in [9], 41.1 µM.

Turning to `N#Cc1c(NC(=O)c2ccccc2)sc2c1CCC(=O)C2`, the GI50 was 1.52 µM in test [1]; 0.385 µM in test [2]; 2.33 µM in test [10]; 0.78 µM in test [4]; 8.83 µM in test [5]; 1.98 µM in test [6]. Also, the GI50 was 0.38 µM in test [7], 1.65 µM in test [8] and 1.25 µM in test [9]. For the same compound, the TGI in [1] worked out at 16.9 µM; in [2], 13.3 µM; in [10], 14.7 µM; in [4], 2.59 µM; in test [5] it was 41.2 µM; in [6], 28.7 µM. For the same compound, the figures for the TGI in test [7], in test [8] and in test [9] were 1.86 µM, 3.22 µM and 4.77 µM, respectively.

As to `CCN(CC)CCO/N=C1\CC[C@H]2[C@@H]3CC=C4C[C@@H](O)CC[C@]4(C)[C@H]3CC[C@]12C`, the TGI came to 35.9 µM in [1]; 50.2 µM in [2]; 31.1 µM in test [3]; 27.6 µM in [4]; 35.9 µM in test [5]; 96.1 µM in test [6]. For the same compound, the TGI is 30 µM in [7], 25.4 µM in test [8] and more than 100 µM in test [9].

As for `CN(C)CCOC(=O)COc1ccc(Cl)cc1`, the TGI in test [1], in test [2], in [10], in [3], in [4] and in test [5] was more than 100 µM each time. Also, the TGI in test [7], in test [8] and in test [9] was more than 100 µM throughout.

Take `N#Cc1c(Nc2ccc(F)cc2)[n+]([O-])c2ccc(Cl)cc2[n+]1[O-]`: the TGI in test [1] is 19.1 µM; in test [2] it was more than 100 µM; in [10] it was 36.7 µM; in test [3], more than 100 µM; in [4], 7.31 µM; in test [5] it was 8.63 µM. For the same compound, the TGI was more than 100 µM in test [6], 20.9 µM in test [7] and 23.1 µM in test [8].

Regarding `Cn1c(=O)c2c(-c3ccccc3)onc2n(C)c1=O`, the TGI in test [1] is more than 100 µM; in test [2], more than 100 µM; in [10] it was more than 100 µM; in test [4], more than 100 µM; in [5], more than 100 µM; in test [6], 42.9 µM. Further, the TGI in [7], in test [8] and in test [9] was more than 100 µM in each case.
